Experimental data as given in the supplement of paper PMC10307832.

Columns and labels:
Assay in all cases: relative viability (nuclei count vs DMSO), 5 days (fraction); higher = more cells survive
[1] = compound: N[C@@H]1CCCN(c2c(/C=C3\SC(=O)NC3=O)cccc2-c2ccccc2)C1 [AZD1208] + CS(=O)(=O)N1CCN(Cc2cc3nc(-c4cccc5[nH]ncc45)nc(N4CCOCC4)c3s2)CC1 [Pictilisib] (partner 1 µM)
In short: (§1)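 Each reported value is a median over duplicate plates. It expresses relative viability: treated-well nuclei count divided by vehicle-well nuclei count. Lung cancer cell lines in 1536-well plates were dosed by pin tool a day after seeding, alone with one drug or with a fixed anchor-drug dose plus five library-drug doses (not always all listed) in √10 steps, and nuclei were counted after 5 days.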

[2] = compound: CN1CCN(CC1)C2=CC(=C(C=C2)NC3=NC(=C(S3)C(=O)C4=C(C=CC=C4Cl)Cl)N)OC [XMD14-99] + COc1cc2c(Oc3ccc(NC(=O)C4(C(=O)Nc5ccc(F)cc5)CC4)cc3F)ccnc2cc1OCCCN1CCOCC1 [Foretinib] (partner 0.25 µM)
In short: as §1

[3] = compound: N[C@@H]1CCCN(c2c(/C=C3\SC(=O)NC3=O)cccc2-c2ccccc2)C1 [AZD1208] + CC(=O)Nc1cccc(-n2c(=O)n(C3CC3)c(=O)c3c(Nc4ccc(I)cc4F)n(C)c(=O)c(C)c32)c1 [Trametinib] (partner 0.02 µM)
In short: as §1

[4] = compound: CN1CCN(CC1)C2=CC(=C(C=C2)NC3=NC(=C(S3)C(=O)C4=C(C=CC=C4Cl)Cl)N)OC [XMD14-99] + C[C@@H](Oc1cc(-c2cnn(C3CCNCC3)c2)cnc1N)c1c(Cl)ccc(F)c1Cl [Crizotinib] (partner 1 µM)
In short: as §1

Cell Line | relative viability ([1]; first compound 0.08 µM) | relative viability ([1]; first compound 0.253 µM) | relative viability ([1]; first compound 0.8 µM) | relative viability ([1]; first compound 2.53 µM) | relative viability ([1]; first compound 8 µM) | relative viability ([2]; first compound 0.08 µM) | relative viability ([2]; first compound 0.8 µM) | relative viability ([2]; first compound 2.53 µM) | relative viability ([2]; first compound 8 µM) | relative viability ([3]; first compound 0.08 µM) | relative viability ([3]; first compound 0.253 µM) | relative viability ([3]; first compound 0.8 µM) | relative viability ([3]; first compound 2.53 µM) | relative viability ([3]; first compound 8 µM) | relative viability ([4]; first compound 0.08 µM) | relative viability ([4]; first compound 0.8 µM) | relative viability ([4]; first compound 2.53 µM) | relative viability ([4]; first compound 8 µM)
LOU-NH91 | 0.503 | 0.485 | 0.503 | 0.494 | 0.517 | 0.919 | 0.962 | 0.916 | 0.802 | 0.785 | 0.786 | 0.759 | 0.825 | 0.728 | 0.789 | 0.743 | 0.717 | 0.698
NCI-H322M | 0.494 | 0.466 | 0.463 | 0.474 | 0.547 | 1.01 | 0.893 | 0.932 | 0.736 | 0.49 | 0.487 | – | 0.566 | 0.578 | 0.927 | 0.972 | 0.905 | 0.848
HCC-827 | 1.07 | 1.15 | 0.992 | 0.95 | 0.784 | 1.06 | 0.935 | 0.978 | 0.727 | 0.557 | 0.516 | 0.536 | 0.524 | 0.398 | 0.857 | 0.906 | 0.754 | 0.752
SW 1573 | 0.411 | 0.418 | 0.421 | 0.347 | 0.344 | 0.814 | 0.992 | 0.861 | 0.824 | 0.433 | 0.438 | 0.44 | 0.419 | 0.317 | 0.792 | 0.878 | 0.793 | 0.757
NCI-H1975 | 0.285 | 0.252 | 0.242 | 0.28 | 0.238 | 1.01 | 0.92 | 0.924 | 0.817 | 0.304 | 0.341 | 0.283 | 0.36 | 0.249 | 0.934 | 0.984 | 0.902 | 0.74
NCI-H1651 | 0.395 | 0.556 | 0.394 | 0.38 | 0.408 | 0.811 | 0.706 | 0.866 | 0.694 | 0.87 | 0.81 | – | 0.742 | 0.746 | 0.869 | 0.799 | 0.934 | 0.825
NCI-H460 | 0.341 | 0.322 | 0.289 | 0.308 | 0.37 | 1.03 | 1.03 | 1.01 | 0.808 | 0.137 | 0.189 | 0.138 | 0.109 | 0.124 | 0.876 | 0.888 | 0.955 | 0.667
LCLC-103H | 0.568 | 0.614 | 0.485 | 0.455 | 0.448 | 0.802 | 0.691 | 0.734 | 0.607 | 0.63 | 0.651 | 0.683 | 0.686 | 0.681 | 0.986 | 1.02 | 1.01 | 0.989
LCLC-97TM1 | 0.164 | 0.175 | – | 0.121 | 0.145 | 0.918 | 0.855 | 0.918 | 0.641 | 0.21 | 0.172 | 0.137 | 0.183 | 0.162 | 0.397 | 0.364 | 0.303 | 0.222
